Measured values reported in patent US10104891B2 (priority 2014, dated 2018).

Legend:
Format in all cases: in vivo
[1] = test system: Pseudoperonospora cubensis; assay: Test 2: control effect against cucumber downy mildew; settings: control value vs untreated section; for pest or weed control at 4 µg/mL: Pseudoperonospora cubensis, 120 h
Outline: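 Cucumber (Sagami hanjiro) at 2-leaf stage sprayed with 4 ppm compound from 10% wettable powder in Tween20 (1/5000); inoculated next day with P. cubensis zoospores, 1.0×10^4 units/ml, 16 hr moist chamber at 22° C. Lesion area rate scored 5 days post-inoculation; control value = (1 − treated/untreated onset area rate)×100.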

Plasmopara viticola = assay: Test 3: control effect against grape downy mildew; settings: control value vs untreated section; for pest or weed control at 4 µg/mL: Plasmopara viticola, 120 h
Outline: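 Neomuscat grape seedlings were sprayed with compound at 4 ppm, diluted from a 10% wettable powder in Tween20 solution. One day later they were inoculated with Plasmopara viticola zoospores at 1.0×10^4 units/ml and held moist at 22° C. for 16 hr. Control value was derived from leaf lesion area at 5 days versus untreated leaves.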

Phytophthora infestans = assay: whole plant or invertebrate; settings: for pest or weed control at 4 µg/mL: Phytophthora infestans, in Solanum lycopersicum, 96 h, read-out: control value (Test 1); for control value (Test 1): tomato late blight, control value vs untreated section
Pythium graminicola = assay: Test 4: control effect against rice damping-off by the Pythium fungus (soil lavage); settings: 1,000 ppm, 2.5 ml test suspension drenched on contaminated soil, rice (koshihikari)
Protocol: A 10% wettable powder created according to the Pharmaceutical Formulation Example 1 was diluted with a Tween20 solution prepared to a concentration of 1/5000, then the compound of formula [1] was prepared to a concentration of 4 ppm. Further, the compound of formula [1] in Test 4 was adjusted to a concentration of 1,000 ppm.
<Test 4 Test of Control Effect Against Rice Damping-Off by the Pythium Fungus (Soil Lavage)>
Distilled water was added to the flora of Pythium graminicola cultured in bentoglass seed culture and stirred with a mixer, and adjusted the contaminated soil to 5 g of bacteria against 1 kg of soil.
In a cell tray having 31×31 mm^2 per cell, 20 ml of the contaminated soil was filled in each cell, and 3 seeds of rice chaff that has been forced to sprout (Species: koshihikari) were seeded, and 5 ml of soil was added for covering, then 2.5 ml of test suspension was drenched, and the seeds were incubated in a moist chamber adjusted to 28° C. for 72 hr to induce sprouting. Then, in a low temperature room of 5° C., the onset of disease was induced for 2 days, then the disease was nurtured for 14 days in a room of 25° C.
The soil was washed, and the apoptosis strain, growth restrained strain, and a healthy strain were measured and the onset rate was calculated by the following formula. Onset rate=[Σ(onset strain number by level×onset index)/(investigated strain×3)]×100 [Onset Index]
1: Growth restrained strain
Also, the following formula was used to compute the control value from the obtained onset index. control value={1−onset area rate at the section applied the test agent/onset area rate of untreated section}×100 Computational formula of the control value: […]

Cc1ccc(C)c(CC(=O)N2CCC(c3nc(C4OCc5cccc(OS(C)(=O)=O)c5CO4)cs3)CC2)c1 (centres unmarked) [Compound 2-1, 4-[4-(6-methylsulfonyloxy-1,5-dihydro-3H-2,4-benzodioxepin-3-yl)-2-thiazolyl]-1-[2-(2,5-dimethylphenyl)acetyl]piperidine]
pest or weed control at 4 µg/mL [1]: 100%
pest or weed control at 4 µg/mL (Plasmopara viticola): 100%
pest or weed control at 4 µg/mL (Phytophthora infestans): 100%
pest or weed control at 1000 ppm (Pythium graminicola): ≥ 90%

O=C(Cc1cc(Cl)ccc1Cl)N1CCC(c2nc(C3OCc4c(F)ccc(F)c4CO3)cs2)CC1 [Compound 2-4, 4-[4-(6,9-difluoro-1,5-dihydro-3H-2,4-benzodioxepin-3-yl)-2-thiazolyl]-1-[2-(2,5-dichlorophenyl)acetyl]piperidine]
pest or weed control at 4 µg/mL [1]: 100%
pest or weed control at 4 µg/mL (Plasmopara viticola): 100%
pest or weed control at 4 µg/mL (Phytophthora infestans): 100%
pest or weed control at 1000 ppm (Pythium graminicola): ≥ 90%

COc1ccc(F)c2c1COC(c1csc(C3CCN(C(=O)Cc4cc(C)ccc4C)CC3)n1)OC2 (centres unmarked) [Compound 2-52, 4-[4-(6-fluoro-9-methoxy-1,5-dihydro-3H-2,4-benzodioxepin-3-yl)-2-thiazolyl]-1-[2-(2,5-dimethylphenyl)acetyl]piperidine]
pest or weed control at 4 µg/mL [1]: 100%
pest or weed control at 4 µg/mL (Plasmopara viticola): 100%
pest or weed control at 4 µg/mL (Phytophthora infestans): 100%
pest or weed control at 1000 ppm (Pythium graminicola): ≥ 90%

Cc1cc(C(F)(F)F)nn1CC(=O)N1CCC(c2nc(C3OCc4cccc(C=O)c4CO3)cs2)CC1 (centres unmarked) [Compound 1-70, 4-[4-(6-formyl-1,5-dihydro-3H-2,4-benzodioxepin-3-yl)-2-thiazolyl]-1-[2-[5-methyl-3-(trifluoromethyl)-1H-pyrazole-1-yl]acetyl]piperidine]
pest or weed control at 4 µg/mL [1]: 60%
pest or weed control at 4 µg/mL (Plasmopara viticola): 100%
pest or weed control at 4 µg/mL (Phytophthora infestans): 100%
pest or weed control at 1000 ppm (Pythium graminicola): ≥ 90%

O=C(Cn1nc(C(F)F)cc1C(F)F)N1CCC(c2nc(C3OCc4cccc(Br)c4CO3)cs2)CC1 (centres unmarked) [Compound 1-113, 4-[4-(6-bromo-1,5-dihydro-3H-2,4-benzodioxepin-3-yl)-2-thiazolyl]-1-[2-[3,5-bis(difluoromethyl)-1H-pyrazole-1-yl]acetyl]piperidine]
pest or weed control at 4 µg/mL [1]: 100%
pest or weed control at 4 µg/mL (Plasmopara viticola): 100%
pest or weed control at 4 µg/mL (Phytophthora infestans): 100%
pest or weed control at 1000 ppm (Pythium graminicola): ≥ 90%

Cc1cc(C(F)(F)F)nn1CC(=O)N1CCC(c2nc(C3OCc4cccc(OC(=O)C5CC5)c4CO3)cs2)CC1 (centres unmarked) [Compound 1-34, 4-[4-(6-cyclopropylcarbonyloxy-1,5-dihydro-3H-2,4-benzodioxepin-3-yl)-2-thiazolyl]-1-[2-[5-methyl-3-(trifluoromethyl)-1H-pyrazole-1-yl]acetyl]piperidine]
pest or weed control at 4 µg/mL [1]: 100%
pest or weed control at 4 µg/mL (Plasmopara viticola): 100%
pest or weed control at 4 µg/mL (Phytophthora infestans): 100%
pest or weed control at 1000 ppm (Pythium graminicola): ≥ 90%

O=C(Cn1nc(C(F)F)cc1C(F)F)N1CCC(c2nc(C3OCc4ccc([N+](=O)[O-])cc4CO3)cs2)CC1 (centres unmarked) [Compound 1-49, 4-[4-(7-nitro-1,5-dihydro-3H-2,4-benzodioxepin-3-yl)-2-thiazolyl]-1-[2-[3,5-bis(difluoromethyl)-1H-pyrazole-1-yl]acetyl]piperidine]
pest or weed control at 4 µg/mL [1]: 100%
pest or weed control at 4 µg/mL (Plasmopara viticola): 100%
pest or weed control at 4 µg/mL (Phytophthora infestans): 100%
pest or weed control at 1000 ppm (Pythium graminicola): ≥ 90%

CS(=O)(=O)Oc1ccc(F)c2c1COC(c1csc(C3CCN(C(=S)Cn4nc(C(F)F)cc4C(F)F)CC3)n1)OC2 (centres unmarked) [Compound 1-158, 4-[4-(6-fluoro-9-methylsulfonyloxy-1,5-dihydro-3H-2,4-benzodioxepin-3-yl)-2-thiazolyl]-1-[2-[3,5-bis(difluoromethyl)-1H-pyrazole-1-yl]thioacetyl]piperidine]
pest or weed control at 4 µg/mL [1]: 100%
pest or weed control at 4 µg/mL (Plasmopara viticola): 100%
pest or weed control at 4 µg/mL (Phytophthora infestans): 100%
pest or weed control at 1000 ppm (Pythium graminicola): ≥ 90%

COc1ccc(Br)c2c1COC(c1csc(C3CCN(C(=O)Cn4nc(C(F)F)cc4C(F)F)CC3)n1)OC2 (centres unmarked) [Compound 1-57, 4-[4-(6-bromo-9-methoxy-1,5-dihydro-3H-2,4-benzodioxepin-3-yl)-2-thiazolyl]-1-[2-[3,5-bis(difluoromethyl)-1H-pyrazole-1-yl]acetyl]piperidine]
pest or weed control at 4 µg/mL [1]: 100%
pest or weed control at 4 µg/mL (Plasmopara viticola): 100%
pest or weed control at 4 µg/mL (Phytophthora infestans): 100%
pest or weed control at 1000 ppm (Pythium graminicola): ≥ 90%

Cc1cc(C(F)(F)F)nn1CC(=O)N1CCC(c2nc(C3OCc4c(F)ccc(F)c4CO3)cs2)CC1 [Compound 1-3, 4-[4-(6,9-difluoro-1,5-dihydro-3H-2,4-benzodioxepin-3-yl)-2-thiazolyl]-1-[2-[5-methyl-3-(trifluoromethyl)-1H-pyrazole-1-yl]acetyl]piperidine]
pest or weed control at 4 µg/mL [1]: 100%
pest or weed control at 4 µg/mL (Plasmopara viticola): 100%
pest or weed control at 4 µg/mL (Phytophthora infestans): 100%
pest or weed control at 1000 ppm (Pythium graminicola): ≥ 90%

Cc1cc(C(F)(F)F)nn1CC(=O)N1CCC(c2nc(C3OCc4cccc(O)c4CO3)cs2)CC1 (centres unmarked) [Compound 1-33, 4-[4-(6-hydroxy-1,5-dihydro-3H-2,4-benzodioxepin-3-yl)-2-thiazolyl]-1-[2-[5-methyl-3-(trifluoromethyl)-1H-pyrazole-1-yl]acetyl]piperidine]
pest or weed control at 4 µg/mL [1]: 100%
pest or weed control at 4 µg/mL (Plasmopara viticola): 100%
pest or weed control at 4 µg/mL (Phytophthora infestans): 100%
pest or weed control at 1000 ppm (Pythium graminicola): ≥ 90%

CS(=O)(=O)Oc1ccc(I)c2c1COC(c1csc(C3CCN(C(=O)Cn4nc(C(F)(F)F)cc4C(F)(F)F)CC3)n1)OC2 (centres unmarked) [Compound 1-129, 4-[4-(6-iodo-9-methylsulfonyloxy-1,5-dihydro-3H-2,4-benzodioxepin-3-yl)-2-thiazolyl]-1-[2-[3,5-bis(trifluoromethyl)-1H-pyrazole-1-yl]acetyl]piperidine]
pest or weed control at 4 µg/mL [1]: 100%
pest or weed control at 4 µg/mL (Plasmopara viticola): 100%
pest or weed control at 4 µg/mL (Phytophthora infestans): 100%

Cc1ccc(C)c(CC(=O)N2CCC(c3nc(C4OCc5c(Br)ccc(OS(C)(=O)=O)c5CO4)cs3)CC2)c1 (centres unmarked) [Compound 2-33]
control value (Test 2) [1]: 100
control value (Test 3) (Plasmopara viticola): 100
control value (Test 1) (Phytophthora infestans): 20

O=C(Cn1nc(C(F)F)cc1C(F)F)N1CCC(c2nc(C3OCc4c(F)c(F)c(F)c(F)c4CO3)cs2)CC1 [Compound 1-55]
control value (Test 2) [1]: 100
control value (Test 3) (Plasmopara viticola): 100
control value (Test 1) (Phytophthora infestans): 100

CCCCS(=O)(=O)Oc1cccc2c1COC(c1csc(C3CCN(C(=O)Cn4nc(C(F)F)cc4C(F)F)CC3)n1)OC2 (centres unmarked) [Compound 1-54]
control value (Test 2) [1]: 100
control value (Test 3) (Plasmopara viticola): 100
control value (Test 1) (Phytophthora infestans): 100

Cc1cc(C(F)(F)F)nn1CC(=O)N1CCC(c2nc(C3OCc4ccc(OS(C)(=O)=O)cc4CO3)cs2)CC1 (centres unmarked) [Compound 1-9]
control value (Test 2) [1]: 80
control value (Test 3) (Plasmopara viticola): 100
control value (Test 1) (Phytophthora infestans): 100

CS(=O)(=O)Oc1ccc2c(c1)COC(c1csc(C3CCN(C(=O)Cc4cc(Cl)ccc4Cl)CC3)n1)OC2 (centres unmarked) [Compound 2-49]
control value (Test 2) [1]: 0
control value (Test 3) (Plasmopara viticola): 100
control value (Test 1) (Phytophthora infestans): 100

CS(=O)(=O)Oc1cccc2c1COC(c1csc(C3CCN(C(=O)Cn4nc(C(F)F)cc4C(F)F)CC3)n1)OC2 (centres unmarked) [Compound 1-38, 4-[4-(6-methylsulfonyloxy-1,5-dihydro-3H-2,4-benzodioxepin-3-yl)-2-thiazolyl]-1-[2-[3,5-bis(difluoromethyl)-1H-pyrazole-1-yl]acetyl]piperidine]
pest or weed control at 4 µg/mL [1]: 100%
pest or weed control at 4 µg/mL (Plasmopara viticola): 100%
pest or weed control at 4 µg/mL (Phytophthora infestans): 100%

CS(=O)(=O)Oc1ccc(OS(C)(=O)=O)c2c1COC(c1csc(C3CCN(C(=O)Cn4nc(C(F)(F)F)cc4C(F)(F)F)CC3)n1)OC2 [Compound 1-147, 4-[4-[6,9-bis(methylsulfonyloxy)-1,5-dihydro-3H-2,4-benzodioxepin-3-yl]-2-thiazolyl]-1-[2-[3,5-bis(trifluoromethyl)-1H-pyrazole-1-yl]acetyl]piperidine]
pest or weed control at 4 µg/mL [1]: 90%
pest or weed control at 4 µg/mL (Plasmopara viticola): 70%
pest or weed control at 4 µg/mL (Phytophthora infestans): 90%

Cc1cc(C(F)(F)F)nn1CC(=O)N1CCC(c2nc(C3OCc4c(F)ccc(OS(C)(=O)=O)c4CO3)cs2)C(C)C1 (centres unmarked) [Compound 1-157]
control value (Test 2) [1]: 100
control value (Test 3) (Plasmopara viticola): 100
control value (Test 1) (Phytophthora infestans): 100
